Experimental data published in patent US20220280527A1, “TRACE AMINE ASSOCIATED RECEPTOR 1 AGONISTS AND PARTIAL AGONISTS FOR PAIN TREATMENT” (Purdue Pharma L.P., priority 2016, published 2022).

Columns and labels:
hTAAR1 = target: T1, hTAAR1 (Homo sapiens, UniProt Q96RJ0); assay: hTAAR1 functional assay (cAMP); assay type: cell-based; conditions: for EC50: read-out: hTAAR1 EC50 (mean ± SEM (n)); for Emax: read-out: hTAAR1 Emax (mean ± SEM (n))
T1 construct: expressed in transfected cells; host or cells: recombinant cells
T1 sequence (Q96RJ0 1-339): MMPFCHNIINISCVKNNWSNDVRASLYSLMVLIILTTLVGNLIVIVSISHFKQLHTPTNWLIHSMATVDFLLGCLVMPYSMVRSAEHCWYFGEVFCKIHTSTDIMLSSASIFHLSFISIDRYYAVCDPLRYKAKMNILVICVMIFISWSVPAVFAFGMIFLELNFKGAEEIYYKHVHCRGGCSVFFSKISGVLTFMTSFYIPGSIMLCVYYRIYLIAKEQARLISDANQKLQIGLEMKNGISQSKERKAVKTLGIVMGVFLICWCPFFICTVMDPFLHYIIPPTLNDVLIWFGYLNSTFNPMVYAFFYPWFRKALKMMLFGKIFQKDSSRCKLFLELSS
Protocol: EC50 and Erna, values are reported for these compounds in Table 1.
A GPCR cAMP Modulation Assay can be used to determine whether a compound can be considered an agonist or antagonist.
cAMP Hunter cell lines were expanded from freezer stocks according to standard procedures. Cells were seeded into white walled, 384-well microplates in a total volume of 20 μL and incubated at 37° C. prior to testing. cAMP modulation was determined using a DiscoverX HitHunter cAMP XS+assay.
To determine whether a compound would be considered an agonist, cells were incubated with a test compound to induce a response. Media was aspirated from cells and replaced with 15 μL, 2:1 HBSS/10mM Hepes: cAMP XS+Ab reagent. Sample stocks were diluted immediately to generate a 4X sample in assay buffer. 5 μL of the 4X sample was added to cells and incubated at room temperature or 37° C. for 30 or 60 minutes. Final assay vehicle concentration was 1%.
After appropriate compound incubation, assay signal was generated by incubation with […] cAMP XS+ED/CL lysis cocktail for one hour followed, which was followed with room temperature incubation with […] cAMP XS+EA reagent for three hours. Microplates were read following signal generation with a PerkinElmer Envision^Tm instrument for chemiluminescent signal detection.
CBIS data analysis suite (ChemInnovation, CA) was used to analyze compound activity. RLU stands for relative light units.
For Gs agonist mode assays, percent activity was calculated using the following formula: […]

Sprague-Dawley rats [1] = assay: SNL-induced mechanical hyperalgesia model (paw pressure test, PWT); assay type: in vivo, rat; conditions: for minimum effective dose (MED): 1 hour prior to testing
Protocol: Surgery is performed under isoflurane/O, inhalation anesthesia. Following induction of anesthesia, a 3 centimeter incision is made and the left paraspinal muscles are separated from the spinous process at the L4-S2 levels. The L6 transverse process is carefully removed with a pair of small rongeurs to identify visually the L4-L6 spinal nerves. The left L5 (or L5 and L6) spinal nerve(s) is isolated and tightly ligated with silk thread. A complete hemostasis is confirmed and the wound is sutured using non-absorbable sutures, such as nylon sutures or stainless steel staples. Sham-rats undergo an identical surgical procedure except that the spinal nerve(s) is not manipulated. Following surgery animals are weighed, administered a subcutaneous (SC) injection of saline or ringers lactate, the wound area is dusted with antibiotic powder and they are kept on a warm pad until they recover from the anesthesia. Animals are then returned to their home cages until behavioral testing begins (i.e., 3-4 weeks post-surgery). The animals are assessed for their response to either a noxious or non-noxious stimuli, described below, prior to surgery (baseline), then 1, 3, and 5 hours after being administered a compound of the present disclosure 3 or 4 weeks post-surgery.
Hyperalgesia: The paw pressure assay can be used to assess mechanical hyperalgesia. Sensitivity to noxious mechanical stimuli is measured in animals using the paw pressure test to assess mechanical hyperalgesia. In rats, hind paw withdrawal thresholds (“PWT”), measured in grams, in response to a noxious mechanical stimulus are determined using an analgesymeter (Model 7200, commercially available from Ugo Basile of Italy), as described in C. Stein, “Unilateral Inflammation of the Hindpaw in Rats as a Model of Prolonged Noxious Stimulation: Alterations in Behavior and Nociceptive Thresholds,” Pharmacol. Biochem. and Behavior 31:451-455 (1988). The rat is gently restrained, its hindpaw is placed on a small round platform, and punctate pressure is applied to the dorsal surface of the hindpaw in a graded manner. The maximum weight that is applied to the hind paw is set at 250 grams and the end point is taken as complete withdrawal of the paw. PWT is determined once for each rat at each time point and either only the affected (ipsilateral; same side as the injury) rear paw is tested, or both the ipsilateral and contralateral (non-injured; opposite to the injury) rear paw are tested. Rats are tested prior to surgery or FCA administration to determine a baseline, or normal, PWT. Rats are tested again 3-4 weeks post-surgery or 24 hours post-FCA injection and at different times after (e.g., 1, 3, and 5 hours) compound or vehicle administration. A sham control is also implemented to determine the PWT of a rat having neither surgery nor compound administration.
Representative agonists and partial agonists of the present disclosure are tested in the spinal nerve ligation (“SNL”)-induced mechanical hyperalgesia model in male, Sprague-Dawley rats. Sensitivity to noxious mechanical stimuli is measured in animals using the paw pressure test to assess mechanical hyperalgesia. In rats, hind paw withdrawal thresholds (“PWT”), measured in grams, in response to a noxious mechanical stimulus are determined using an analgesymeter (Model 7200, commercially available from Ugo Basile of Italy), as described in C. Stein, “Unilateral Inflammation of the Hindpaw in Rats as a Model of Prolonged Noxious Stimulation: Alterations in Behavior and Nociceptive Thresholds,” Pharmacol. Biochem. & Behavior 31:451-455 (1988). Briefly, the rat's paw is placed on a small platform, and weight is applied in a graded manner up to a maximum of 250 grams. The endpoint is taken as the weight at which the paw is completely withdrawn. PWT is determined once for each rat at each time point. PWT is measured only in the injured paw. Rats are tested prior to surgery to determine a baseline, or normal, PWT. […]

1276 bp GRK5 KO rats = assay: SNL-induced mechanical hyperalgesia in 1276 bp GRK5 KO rats; assay type: in vivo, rat; conditions: IP dosing, achieved at 3 hours
[2] = test system: 254 bp β-arresting KO rats; assay: SNL-induced mechanical hyperalgesia in 254 bp β-arresting KO rats; assay type: in vivo, rat; conditions: IP dosing, achieved at 1 hour
Sprague-Dawley rats [3] = assay: Rotarod performance; assay type: in vivo, rat; conditions: IP at 30 mg/kg, 1 hour post dosing
Protocol: The Rotarod test is used to evaluate motor coordination, strength, and balance. The animals are placed on the rotating rod of the device. The time during which an animal can maintain itself on said bar at an accelerating speed of 5-40 rpm is recorded. 300 seconds is the assay cut-off. Data are analyzed by a two-way ANOVA using a Bonferroni Multiple Comparisons test. […] In the experiment, male, Sprague-Dawley rats, 211-241 g (n=10/group) were tested on an accelerating rotarod (AccuScan; manual 5-40 rpm).

Sprague-Dawley rats [4] = assay: Tail flick test (nociceptive pain); assay type: in vivo, rat; conditions: positive control, administered subcutaneously one hour prior to testing

Row | Structure (SMILES) | EC50 (hTAAR1) | Emax (hTAAR1) | further results
1 | NC1=N[C@@H](CCc2ccc(NC(=O)c3ccc(Cl)cc3)cc2)CO1 | 8.53 ± 0.25 nM | 42.7 ± 3% | 
2 | Cc1c(F)cccc1[C@H]1COC(N)=N1 | 13.7 ± 5.01 nM | 68.7 ± 3% | 
3 | O=C(Nc1ccc(C2CCNC2)cc1)Nc1ccc(Cl)cn1 (stereo not drawn) | 54.5 ± 18.6 nM | 80.9 ± 3% | 
4 | NC1=N[C@@H](c2ccc(Cl)c(Cl)c2)CO1 |  | 35.5 ± 3% | 
5 | Clc1ccc(Nc2ccc(C3CNCCO3)nc2)cc1 (stereo not drawn) | 123 ± 9.99 nM | 56.1 ± 7.5% | 
6 | NC1CCc2cc(NC(=O)c3ccnc(C(F)(F)F)c3)ccc2C1 (stereo not drawn) | 163 nM |  | hTAAR1 Emax (mean ± SEM (n)) (hTAAR1): 85.8 ± 3.0% (2.8)
7 | O=C(Nc1ccc(C2CCNC2)cc1)c1ccc(Cl)cn1 (stereo not drawn) | 475 ± 50.1 nM | 73.5 ± 3% | 
8 | CC(C)n1nc(OCC(F)(F)F)cc1C(=O)Nc1ccc(C2OC3CN[C@H]2C3)cc1 (stereo partly drawn) | 519 nM |  | hTAAR1 Emax (mean ± SEM (n)) (hTAAR1): 66.6 ± 14.9% (3)
9 | O=C(Nc1ccc(C2O[C@@H]3CN[C@H]2C3)cc1)c1ccc(Cl)cc1 (stereo partly drawn) | 7210 nM |  | hTAAR1 Emax (mean ± SEM (n)) (hTAAR1): 29.7 ± 14.2% (3)
10 | CCOc1cccc(NC(=O)c2ccc(N3CCCC3)c(C(F)(F)F)c2)c1 | > 10000 nM | 6.1 ± 3% | 
11 | CC(C)N(Cc1c[nH]cn1)c1ccc(Cl)cc1 [Compound 1, N-((1H-imidazol-4-yl)methyl)-4-chloro-N-isopropylaniline] |  |  | maximum reversal of SNL-induced mechanical hyperalgesia (Sprague-Dawley rats [1]; IP dosing, achieved at 3 hours): 41%; minimum effective dose (MED) (Sprague-Dawley rats [1]; PO dosing): < 3 mg/kg; maximum reversal of SNL-induced mechanical hyperalgesia (Sprague-Dawley rats [1]; PO dosing, achieved at 3 hours): 69%
12 | CCN(CC1COC(N)=N1)c1ccccc1 (stereo not drawn) [Compound 2, 4-((ethyl(phenyl)amino)methyl)-4,5-dihydrooxazol-2-amine] |  |  | maximum reversal of SNL-induced mechanical hyperalgesia (1276 bp GRK5 KO rats): 61%; maximum reversal of SNL-induced mechanical hyperalgesia [2]: 43%; rotarod performance (motor performance) (Sprague-Dawley rats [3]): produced deficits in motor performance; minimum effective dose (MED) (Sprague-Dawley rats [1]; IP dosing): < 1 mg/kg; maximum reversal of SNL-induced mechanical hyperalgesia (Sprague-Dawley rats [1]; IP dosing, achieved at 3 hours): 76%; minimum effective dose (MED) (Sprague-Dawley rats [1]; PO dosing): 10 mg/kg; maximum reversal of SNL-induced mechanical hyperalgesia (Sprague-Dawley rats [1]; PO dosing, achieved at 3 hours): 22%
13 | NC1=NC(c2ccc(Cl)c(Cl)c2)CO1 (stereo not drawn) [Compound 3, 4-(3,4-dichlorophenyl)-4,5-dihydrooxazol-2-amine] |  |  | minimum effective dose (MED) (Sprague-Dawley rats [1]; IP dosing): 3 mg/kg; maximum reversal of SNL-induced mechanical hyperalgesia (Sprague-Dawley rats [1]; IP dosing, achieved at 3 hours): 56%; minimum effective dose (MED) (Sprague-Dawley rats [1]; PO dosing): 10 mg/kg; maximum reversal of SNL-induced mechanical hyperalgesia (Sprague-Dawley rats [1]; PO dosing, achieved at 1 hour): 23%
14 | CCN(CC1COC(N)=N1)c1ccccc1 (stereo not drawn) [drawing 40] | 92 ± 10.9 nM | 81.7 ± 3% | 
15 | CN1CC[C@]23c4c5ccc(O)c4O[C@H]2[C@@H](O)C=C[C@H]3[C@H]1C5 [morphine] |  |  | analgesic efficacy in the tail flick assay (Sprague-Dawley rats [4]): robust analgesic efficacy
